Measurements published in patent publication US7519519B1, “Signature projection score” (Entelos, Inc., priority 2002, dated 2009).
Like-named read-outs stand apart in the source and are kept apart here. Marks after values point to notes of the source that are not given here.

What was measured:
[1] = tested on: Leukocyte Depletion Signature; test: Signature Projection Score against the Leukocyte Depletion Signature, bone marrow gene expression data; conditions: maximum over treatments, normalized so highest training treatment = 100, * = p < 0.01, ** = p < 0.001
Description: Using only the genes in the signature, the amount and direction of gene expression changes in an experimental sample are compared (in terms of log ratio of expression signals) against a reference gene expression change (computed as the average over a characterizing set of treatments in our database). The sum over genes of the product of these two differences is computed, and normalized such that the highest score of any of the characterizing treatments when calculated in this way is 100.
After determination of the MTD and FED for a compound, each compound was dissolved in a vehicle for administration on day 1 of the study (additional daily doses were stored as frozen aliquots from this initial formulation). Each compound was administered to three individual male Sprague-Dawley rats for each of the two doses (MTD and FED) for one of four different times (0.25 day, 1 day, 3 days, and 5 days), yielding a total of up to 24 animals per compound study. Vehicle choice was based on solubility of the compound, effect of food on adsorption, and the vehicles used in the literature reports examined during the FED selection investigations, described above. Generally, the route and vehicle in which the FED was defined are used. When there was a choice of routes and vehicles, oral routes were chosen over injection routes. Many compounds, especially oncolytics, are only administrable intravenously. In such cases, the compound was administered as an intravenous formulation into the tail vein. Orally administered compounds were given dissolved in either water, 1% carboxymethycellulose (CMC) or corn oil. Intravenously and intraperitoneally administered compounds were given in 0.9% saline. Subcutaneously administered compounds were given in corn oil. Animal body weights were determined at 1 day and, where appropriate, at 4 days, before necropsy, and clinical observations were made on a daily basis. Control animals were dosed with vehicle only. Three male animals were used for each dose and time combination used for the compound treatment.
Tissue harvest and handling: After the allocated treatment time, the tissues from the animals were harvested. […] All the tissues collected were divided to provide samples for histopathological analyses, and the remainder of each tissue was then snap-frozen. […] Preparation of enriched mRNA: Punch biopsies were taken from the frozen tissues and were completely homogenized before being processed using the MagNA Pure robot. (Roche Diagnostics Corp., Indianapolis, Ind.) in combination with the MagNA Pure LC RNA Isolation kit II (Roche Diagnostics Corp). The amount of lysis buffer was adjusted to allow 1 ml per 50 mg for liver tissue, or 1 ml per 80 mg for all other tissues.

[2] = tested on: leukocytes
Description: (§1) Control animals were dosed with vehicle only.
The Leukocyte Depletion Signature was derived by analysis of a subset of data from about 2000 in vivo rat drug treatments (using about 300 individual drugs) representing multiple tissues; the method for creation of this dataset is described in the general methods section.

[3] = tested on: Leukocyte Depletion Signature; test: Signature Projection Score against the Leukocyte Depletion Signature, spleen gene expression data; type: in vivo, rat; conditions: maximum over treatments, normalized so highest training treatment = 100, * = p < 0.01, ** = p < 0.001
Description: as §1

[4] = time point 5 days, average of 3 animals, * = p < 0.01

SMILES | Max Bone Marrow Score (Signature Projection Score) [1] | Max Fold Serum Leukocyte Depletion ([2]; rat, in vivo) [fold] | Max Fold Serum Leukocyte Depletion ([2]; maximum over treatments) [fold] | Fold Decrease in leukocytes [2, 4] | Max Spleen Score (Signature Projection Score) [3] | Fold Decrease in leukocytes ([2]; rat, in vivo)
CCO [ETHANOL] | 2 | 0 | – | – | – | –
CO[C@@]12[C@H](COC(N)=O)C3=C(C(=O)C(C)=C(N)C3=O)N1C[C@@H]1N[C@@H]12 [MITOMYCIN C] | 7 | – | 3.53 | 3.53* fold | 57* | –
COc1c(C)c2c(c(O)c1C/C=C(\C)CCC(=O)OCCN1CCOCC1)C(=O)OC2 [MYCOPHENOLATE MOFETIL] | 9 | – | – | – | – | –
O=C1[O][Pt]2([NH][C@@H]3CCCC[C@H]3[NH]2)[O]C1=O [OXALIPLATIN] | 14 | – | 2.18 | – | – | –
COc1cc([C@@H]2c3cc4c(cc3[C@@H](O[C@@H]3O[C@@H]5CO[C@@H](C)O[C@H]5[C@H](O)[C@H]3O)[C@H]3COC(=O)[C@H]23)OCO4)cc(OC)c1O [ETOPOSIDE] | 43* | 2.04 | – | – | 47* | –
Nc1nc2nc[nH]c2c(=S)[nH]1 [THIOGUANINE] | 24* | 3.63 | – | – | 100** | 3.63* fold
CC/C(=C(/CC)c1ccc(O)cc1)c1ccc(O)cc1 [DIETHYLSTILBESTROL] | 2 | – | – | – | 30* | –
CS(=O)(=O)OCCCCOS(C)(=O)=O [BUSULFAN] | 19 | 0 | – | – | 32* | –
O=C(O)CCCc1ccc(N(CCCl)CCCl)cc1 [CHLORAMBUCIL] | 9 | – | 7.08 | 7.08* fold | 65* | –
COc1cccc2c1C(=O)c1c(O)c3c(c(O)c1C2=O)C[C@@](O)(C(C)=O)C[C@@H]3O[C@H]1C[C@H](N)[C@H](O)[C@H](C)O1 [DAUNORUBICIN] | 54* | – | 2.77 | – | – | –
CCC1=C[C@@H]2CN(C1)Cc1c([nH]c3ccccc13)[C@@](C(=O)OC)(c1cc3c(cc1OC)N(C)[C@H]1[C@@](O)(C(=O)OC)[C@H](OC(C)=O)[C@]4(CC)C=CCN5CC[C@]31[C@@H]54)C2 [VINORELBINE] | 44* | 1.93 | – | – | – | –
COc1cccc2c1C(=O)c1c(O)c3c(c(O)c1C2=O)C[C@@](O)(C(=O)CO)C[C@@H]3O[C@H]1C[C@H](N)[C@H](O)[C@H](C)O1 [DOXORUBICIN] | 41* | 4.70 | – | – | 75** | –
S=C=Nc1cccc2ccccc12 [1-NAPHTHYL ISOTHIOCYANATE] | 0 | – | 0 | – | – | –
Cc1oncc1C(=O)Nc1ccc(C(F)(F)F)cc1 [LEFLUNOMIDE] | 7 | 2.89 | – | – | 34* | –
CC(C)(c1ccc(O)cc1)c1ccc(O)cc1 [BISPHENOL A] | 0 | 0 | – | – | 3 | –
C[C@H]1O[C@@H](n2cc(F)c(=O)[nH]c2=O)[C@H](O)[C@@H]1O [DOXIFLURIDINE] | 56* | 0 | – | – | – | –

SMILES | Max Bone Marrow Score (Signature Projection Score) [1] | Max Fold Serum Leukocyte Depletion ([2]; rat, in vivo) [fold] | Max Fold Serum Leukocyte Depletion ([2]; maximum over treatments) [fold] | Fold Decrease in leukocytes [2, 4] | Max Spleen Score (Signature Projection Score) [3] | Fold Decrease in leukocytes ([2]; rat, in vivo)
Cn1cnc([N+](=O)[O-])c1Sc1ncnc2nc[nH]c12 [AZATHIOPRINE] | 11 | 0 | – | – | 19 | –
Oc1c(Cl)cc(Cl)cc1Sc1cc(Cl)cc(Cl)c1O [BITHIONOL] | 4 | 0 | – | – | 2 | –
CN(C)C=O [N,N-DIMETHYLFORMAMIDE] | 0 | – | – | – | 3 | –
O=P1(NCCCl)OCCCN1CCCl (stereo not drawn) [IFOSFAMIDE] | 79** | – | – | – | 11 | –
CC[C@]1(O)C[C@H]2CN(CCc3c([nH]c4ccccc34)[C@@](C(=O)OC)(c3cc4c(cc3OC)N(C=O)[C@H]3[C@@](O)(C(=O)OC)[C@H](OC(C)=O)[C@]5(CC)C=CCN6CC[C@]43[C@@H]65)C2)C1 [VINCRISTINE] | 5 | – | – | – | – | –
CN(Cc1cnc2nc(N)nc(N)c2n1)c1ccc(C(=O)N[C@@H](CCC(=O)O)C(=O)O)cc1 [METHOTREXATE] | 6 | 4.35 | – | – | 75** | 4.35* fold
NC(=O)NO [HYDROXYUREA] | 13 | 2.92 | – | – | 15 | –
ClC(Cl)(Cl)Cl [CARBON TETRACHLORIDE] | 2 | – | 0 | – | – | –
N.N.O=C([O-])C1(C(=O)[O-])CCC1.[Pt+2] [CARBOPLATIN] | 2 | – | 0 | – | 8 | –
Nc1ccn([C@@H]2O[C@H](CO)[C@@H](O)[C@@H]2O)c(=O)n1 [CYTARABINE] | 2 | 2.85 | – | – | 15 | –
CCN(CC)N=O [N-NITROSODIETHYLAMINE] | 7 | – | – | – | 0 | –
O=NN(CCCl)C(=O)NCCCl [CARMUSTINE] | 39* | – | 4.49 | 4.49* fold | 31* | –
CC[C@]1(O)C[C@@H]2CN(CCc3c([nH]c4ccccc34)[C@@](C(=O)OC)(c3cc4c(cc3OC)N(C)[C@H]3[C@@](O)(C(=O)OC)[C@H](OC(C)=O)[C@]5(CC)C=CCN6CC[C@]43[C@@H]65)C2)C1 [VINBLASTINE] | 11 | – | – | – | – | –
N.N.[Cl][Pt][Cl] [CISPLATIN] | 7 | – | 2.01 | – | 25* | –
O=NN(CCCl)C(=O)NC1CCCCC1 [LOMUSTINE] | 3 | – | 0 | – | 23* | –
CN(C)c1nc(N(C)C)nc(N(C)C)n1 [ALTRETAMINE] | 3 | 0 | – | – | 5 | –
